According to patent US8778923B2, “GLP-1 receptor modulators” (Receptos, Inc., priority 2011, dated 2014):

Biological target: T1, GLP-1R (Homo sapiens, UniProt P43220)
T1 construct: host or cells: CRE-bla CHO-K1
Assay: EC20 GLP-1(9-36) PAM cAMP assay: dose response of compound in the presence of fixed concentration of GLP-1(9-36)
Assay type: cell-based
Details: GLP-1R CRE-bla CHO-K1 cells, compound dose response in presence of fixed concentration of GLP-1(9-36)
Description: EC20 GLP-1(9-36) PAM cAMP Assay: Dose Response of Compound in the Presence of Fixed Concentration of GLP-1 (9-36).
GLP-1R CRE-bla CHO-K1 cells cultured in growth medium (DMEM-High glucose, 10% dialyzed FBS, 0.1 mM NEAA, 25 mM Hepes, 100 U/mL penicillin/100 μg/mL streptomycin, 5 μg/mL Blasticidin, 600 μg/mL Hygromycin) were tryspsinized and plated in suspension into 384 well white flat bottom plates at 5000 cells/well in 12 μL assay buffer (Hanks Balanced Salt solution, 10 mM Hepes, 0.1% BSA, pH 7.4). A 5× compound dose response curve (12-point) was generated in assay buffer containing 1.5 mM IBMX, 12.5% DMSO. GLP-1(9-36) was diluted to 4.2 μM in assay buffer containing 1.5 mM IBMX and 12.5% DMSO. The 5× compound dose response was added (3 μL), followed by 0.5 μL of GLP-1(9-36) and cells were incubated for 30 min at 37° C. Direct detection of cAMP was carried out using DiscoveRx HitHunter cAMP kit according to manufacturer's instructions and luminescence was read using a SpectraMax M5 plate reader. Luminescence was converted to total cAMP using a cAMP standard curve and data was analyzed by non-linear regression to determine the EC50 and Emax.
GLP-1(7-36): […]-NH2. GLP-1(9-36): […]-NH2. GLP-1(7-36) was purchased from GenScript. GLP-1(9-36) was purchased from Biopeptide Co., Inc.

T1 sequence (P43220 24-463): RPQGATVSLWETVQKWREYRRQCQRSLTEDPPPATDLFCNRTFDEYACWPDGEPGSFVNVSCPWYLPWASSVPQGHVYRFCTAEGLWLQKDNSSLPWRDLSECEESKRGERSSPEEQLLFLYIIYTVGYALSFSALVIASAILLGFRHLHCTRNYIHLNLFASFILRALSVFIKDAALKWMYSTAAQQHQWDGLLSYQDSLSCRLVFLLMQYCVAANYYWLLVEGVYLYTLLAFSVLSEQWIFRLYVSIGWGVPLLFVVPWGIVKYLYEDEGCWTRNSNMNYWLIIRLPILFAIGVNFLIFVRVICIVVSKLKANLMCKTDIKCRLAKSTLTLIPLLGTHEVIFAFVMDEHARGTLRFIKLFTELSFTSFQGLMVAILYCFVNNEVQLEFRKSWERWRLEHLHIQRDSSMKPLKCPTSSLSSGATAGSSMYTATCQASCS
T1 sequence (P01275 100-127 partner limits assumed): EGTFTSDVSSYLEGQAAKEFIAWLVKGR

Compound	EC50 [nM]
CC(C)(C)Oc1ccc(-c2nc(-c3ccc(C[C@H](NC(=O)c4ccc(C(C)(C)C)cc4)C(=O)O)cc3)no2)cc1 [Compound 56]	2500 to 5000
Cc1cc(C)cc(-c2nc(-c3ccc(C[C@H](NC(=O)c4ccc(C(C)(C)C)cc4)C(=O)O)cc3)no2)c1 [Compound 57]	2500 to 5000
Cc1ccc(-c2nc(-c3ccc(C[C@H](NC(=O)c4ccc(C(C)(C)C)cc4)C(=O)O)cc3)no2)cc1C [Compound 58]	2500 to 5000
CC(C)Sc1ccc(-c2nc(-c3ccc(C[C@H](NC(=O)c4ccc(C(C)(C)C)cc4)C(=O)O)cc3)no2)cc1 [Compound 59]	2500 to 5000
CC(C)(C)c1ccc(C(=O)N[C@@H](Cc2ccc(-c3noc(-c4ccc5ccccc5c4)n3)cc2)C(=O)O)cc1 [Compound 60]	2500 to 5000
CC(C)(C)c1ccc(C(=O)N[C@@H](Cc2ccc(-c3noc(-c4ccc(C(N)=O)cc4)n3)cc2)C(=O)O)cc1 [Compound 61]	2500 to 5000
CC(C)(C)c1ccc(C(=O)N[C@@H](Cc2ccc(-c3noc(-c4ccc(N)cc4)n3)cc2)C(=O)O)cc1 [Compound 62]	2500 to 5000
CC(C)Nc1ccc(-c2nc(-c3ccc(C[C@H](NC(=O)c4ccc(C(C)(C)C)cc4)C(=O)O)cc3)no2)cc1 [Compound 65]	2500 to 5000
CC(C)(C)c1ccc(C(=O)N[C@@H](Cc2ccc(-c3noc(-c4cccc5c4CCNC5)n3)cc2)C(=O)O)cc1 [Compound 66]	2500 to 5000
CC(C)(C)c1ccc(C(=O)N[C@@H](Cc2ccc(-c3noc(-c4ccc(N5CCCCC5)cc4)n3)cc2)C(=O)NCC(=O)O)cc1 [Compound 68]	2500 to 5000
CCCCCCCOc1ccc(-c2nc(-c3ccc(C[C@H](NC(=O)c4ccc(C(C)(C)C)cc4)C(=O)NS(C)(=O)=O)cc3)no2)cc1 [Compound 69]	5000 to 10000
CCCCCCCOc1ccc(-c2nc(-c3ccc(C[C@H](NC(=O)c4ccc(C(C)(C)C)cc4)C(=O)NC(C)(C)C(=O)O)cc3)no2)cc1 [Compound 70]	5000 to 10000
CCCCCCCOc1ccc(-c2nc(-c3ccc(C(NC(=O)c4ccc(C(C)(C)C)cc4)C(=O)O)cc3)no2)cc1 (stereo not drawn) [Compound 71]	2500 to 5000
CC(C)(C)c1ccc(C(=O)NC(C(=O)O)c2ccc(-c3noc(-c4ccc(N5CCCCC5)cc4)n3)cc2)cc1 (stereo not drawn) [Compound 72]	5000 to 10000
CC(C)(C)c1ccc(C(=O)N[C@@H](CCc2ccc(-c3noc(-c4ccc(N5CCCCC5)cc4)n3)cc2)C(=O)O)cc1 [Compound 74]	2500 to 5000
CC(C)(C)c1ccc(C(=O)N[C@H](CC(=O)O)Cc2ccc(-c3noc(-c4ccc(N5CCCCC5)cc4)n3)cc2)cc1 [Compound 75]	2500 to 5000

Compound	EC50 [nM]
CCCCCCCOc1ccc(-c2cnc(-c3ccc(CC(NC(=O)c4ccc(C(C)(C)C)cc4)C(=O)O)cc3)s2)cc1 (stereo not drawn) [Compound 81]	5000 to 10000
CCCCCCCOc1ccc(-c2cnc(-c3ccc(C[C@H](NC(=O)Cc4ccccc4)C(=O)O)cc3)nc2)cc1 [Compound 88]	5000 to 10000
CCCCCCCOc1ccc(-c2cnc(-c3ccc(C[C@H](NC(=O)c4ccc(N5CCCC5)cc4)C(=O)O)cc3)nc2)cc1 [Compound 90]	2500 to 5000
CCCCCCCOc1ccc(-c2cnc(-c3ccc(C[C@H](NC(=O)c4ccc(C(F)(F)F)cc4)C(=O)O)cc3)nc2)cc1 [Compound 93]	5000 to 10000
CCCCCCCOc1ccc(-c2cnc(-c3ccc(C[C@H](NC(=O)c4ccc(N(C)C)cc4)C(=O)O)cc3)nc2)cc1 [Compound 96]	2500 to 5000
CCCCCCCOc1ccc(-c2cnc(-c3ccc(C[C@H](NC(=O)c4ccc(CC(C)C)cc4)C(=O)O)cc3)nc2)cc1 [Compound 100]	800 to 2500
CCCCCCCOc1ccc(-c2cnc(-c3ccc(C[C@H](NC(=O)c4ccc(CCC)cc4)C(=O)O)cc3)nc2)cc1 [Compound 101]	800 to 2500
CCCCCCCOc1ccc(-c2cnc(-c3ccc(C[C@H](NC(=O)c4ccc(N)cc4)C(=O)O)cc3)nc2)cc1 [Compound 102]	800 to 2500
CCCCCCCOc1ccc(-c2cnc(-c3ccc(C[C@H](NC(=O)c4cccc(N)c4)C(=O)O)cc3)nc2)cc1 [Compound 104]	800 to 2500
CCCCCCCOc1ccc(-c2cnc(-c3ccc(C[C@H](NC(=O)c4cccc(C#N)c4)C(=O)O)cc3)nc2)cc1 [Compound 105]	5000 to 10000
CCCCCCCOc1ccc(-c2cnc(-c3ccc(C[C@H](NC(=O)c4ccc(C(C)(C)C)cc4OC)C(=O)O)cc3)nc2)cc1 [Compound 106]	800 to 2500
CCCCCCCOc1ccc(-c2cnc(-c3ccc(C[C@H](NC(=O)c4ccc(CCCC)cc4)C(=O)O)cc3)nc2)cc1 [Compound 107]	800 to 2500
CCCCCCCOc1ccc(-c2cnc(-c3ccc(C[C@H](NC(=O)c4ccc(OCC)cc4)C(=O)O)cc3)nc2)cc1 [Compound 108]	800 to 2500
CCCCCCCOc1ccc(-c2cnc(-c3ccc(C[C@H](NC(=O)c4ccc(OC)cc4F)C(=O)O)cc3)nc2)cc1 [Compound 109]	800 to 2500
CCCCCCCOc1ccc(-c2cnc(-c3ccc(C[C@H](NC(=O)c4ccc(C)cc4)C(=O)O)cc3)nc2)cc1 [Compound 110]	800 to 2500

The remaining lines, values ahead:

EC50 [nM]	Compound
800 to 2500	CNc1ccc(-c2nc(-c3ccc(C[C@H](NC(=O)c4ccc(C(C)(C)C)cc4)C(=O)O)cc3)no2)cc1 [Compound 63]
800 to 2500	CC(C)(C)c1ccc(C(=O)N[C@@H](Cc2ccc(-c3noc(-c4ccc5[nH]ccc5c4)n3)cc2)C(=O)O)cc1 [Compound 64]
800 to 2500	CCCCCCCOc1ccc(-c2nc(-c3ccc(C[C@H](NC(=O)c4ccc(C(C)(C)C)cc4)C(=O)NCC(=O)O)cc3)no2)cc1 [Compound 67, (S)-2-(2-(4-(tert-butyl)benzamido)-3-(4-(5-(4-(heptyloxy)phenyl)-1,2,4-oxadiazol-3-yl)phenyl)propanamido)acetic acid]
800 to 2500	CCCCCCCOc1ccc(-c2nc(-c3ccc(CC[C@H](NC(=O)c4ccc(C(C)(C)C)cc4)C(=O)O)cc3)no2)cc1 [Compound 73]
800 to 2500	CCCCCCCOc1ccc(-c2nnc(-c3ccc(C[C@H](NC(=O)c4ccc(C(C)(C)C)cc4)C(=O)O)cc3)o2)cc1 [Compound 76]
800 to 2500	CCCCCCCOc1ccc(-c2coc(-c3ccc(C[C@H](NC(=O)c4ccc(C(C)(C)C)cc4)C(=O)O)cc3)n2)cc1 [Compound 77]
800 to 2500	CCCCCCCOc1ccc(-c2nc(-c3ccc(C[C@H](NC(=O)c4ccc(C(C)(C)C)cc4)C(=O)O)cc3)co2)cc1 [Compound 78]
800 to 2500	CCCCCCCOc1ccc(-c2csc(-c3ccc(C[C@H](NC(=O)c4ccc(C(C)(C)C)cc4)C(=O)O)cc3)n2)cc1 [Compound 79]
800 to 2500	CCCCCCCOc1ccc(-c2nc(-c3ccc(C[C@H](NC(=O)c4ccc(C(C)(C)C)cc4)C(=O)O)cc3)cs2)cc1 [Compound 80]
800 to 2500	CCCCCCCOc1ccc(-c2ncc(-c3ccc(CC(NC(=O)c4ccc(C(C)(C)C)cc4)C(=O)O)cc3)s2)cc1 (stereo not drawn) [Compound 82]
800 to 2500	CCCCCCCOc1ccc(-c2nnc(-c3ccc(C[C@H](NC(=O)c4ccc(C(C)(C)C)cc4)C(=O)O)cc3)s2)cc1 [Compound 83]
800 to 2500	CCCCCCCOc1ccc(-c2nc(-c3ccc(C[C@H](NC(=O)c4ccc(C(C)(C)C)cc4)C(=O)O)cc3)ns2)cc1 [Compound 84]
800 to 2500	CCCCCCCOc1ccc(-c2cnc(-c3ccc(C[C@H](NC(=O)c4ccc(C(C)(C)C)cc4)C(=O)O)cc3)nc2)cc1 [Compound 85, (S)-2-(4-(tert-butyl)benzamido)-3-(4-(5-(4-(heptyloxy)phenyl)pyrimidin-2-yl)phenyl)propanoic acid]
800 to 2500	CCCCCCCOc1ccc(-c2cnc(-c3ccc(C[C@H](NC(=O)c4ccc(OC)cc4)C(=O)O)cc3)nc2)cc1 [Compound 86]
800 to 2500	CCCCCCCOc1ccc(-c2cnc(-c3ccc(C[C@H](NC(=O)c4ccc(Cl)cc4)C(=O)O)cc3)nc2)cc1 [Compound 87]
800 to 2500	CCCCCCCOc1ccc(-c2cnc(-c3ccc(C[C@H](NC(=O)c4ccc(CC)cc4)C(=O)O)cc3)nc2)cc1 [Compound 89]
800 to 2500	CCCCCCCOc1ccc(-c2cnc(-c3ccc(C[C@H](NC(=O)c4ccc(-c5ccccc5)cc4)C(=O)O)cc3)nc2)cc1 [Compound 91]
800 to 2500	CCCCCCCOc1ccc(-c2cnc(-c3ccc(C[C@H](NC(=O)c4cccc(N5CCCC5)c4)C(=O)O)cc3)nc2)cc1 [Compound 92]
800 to 2500	CCCCCCCOc1ccc(-c2cnc(-c3ccc(C[C@H](NC(=O)c4ccc(C(C)C)cc4)C(=O)O)cc3)nc2)cc1 [Compound 94, (S)-3-(4-(5-(4-(heptyloxy)phenyl)pyrimidin-2-yl)phenyl)-2-(4-isopropylbenzamido)propanoic acid]
800 to 2500	CCCCCCCOc1ccc(-c2cnc(-c3ccc(C[C@H](NC(=O)c4cccc(C(C)C)c4)C(=O)O)cc3)nc2)cc1 [Compound 95]
800 to 2500	CCCCCCCOc1ccc(-c2cnc(-c3ccc(C[C@H](NC(=O)c4ccc(OC(C)C)cc4)C(=O)O)cc3)nc2)cc1 [Compound 97]
800 to 2500	CCCCCCCOc1ccc(-c2cnc(-c3ccc(C[C@H](NC(=O)c4ccc(C#N)cc4)C(=O)O)cc3)nc2)cc1 [Compound 98]
800 to 2500	CCCCCCCOc1ccc(-c2cnc(-c3ccc(C[C@H](NC(=O)c4ccc(S(C)(=O)=O)cc4)C(=O)O)cc3)nc2)cc1 [Compound 99]
